Calls of active or inactive are those of the source. The calls are words filed in the database; no cut-off is given here.
What was measured:
Mus musculus [1] = assay: Anti-osteoporosis activity in ovariectomized BALB/c mouse at 100 microg/kg, iv assessed as increase in trabecular bone mass; format: functional; conditions: dose 100 µg/kg
Mus musculus [2] = assay: Anti-osteoporosis activity in ovariectomized BALB/c mouse at 100 microg/kg, iv assessed as reduction in trabecular bone stiffness; format: functional, organism-based; conditions: dose 100.0 µg/kg
Mus musculus [3] = assay: Anti-osteoporosis activity in ovariectomized BALB/c mouse at 100 microg/kg, iv assessed as increase in trabecular number; format: functional; conditions: dose 100 µg/kg
Mus musculus [4] = assay: Anti-osteoporosis activity in ovariectomized BALB/c mouse at 100 microg/kg, iv assessed as effect on cortical bone microarchitecture; format: functional, organism-based; conditions: dose 100.0 µg/kg
Mus musculus [5] = assay: Anti-osteoporosis activity in ovariectomized BALB/c mouse at 100 microg/kg, iv assessed as increase in mineral crystallinity heterogeneity; format: functional; conditions: dose 100 µg/kg
[6] = Toxicity in ovariectomized BALB/c mouse assessed as effect on body mass at 100 microg/kg, iv; conditions: in vivo, 0.1 mg/kg, dose 100 µg/kg
Mus musculus [7] = assay: Anti-osteoporosis activity in ovariectomized BALB/c mouse at 100 nmol/kg/day, sc assessed as increase in post-yield displacement of cortical bone; format: functional
Mus musculus [8] = assay: Anti-osteoporosis activity in ovariectomized BALB/c mouse at 100 nmol/kg/day, sc assessed as increase in ultimate displacement of cortical bone; format: functional
Mus musculus [9] = assay: Anti-osteoporosis activity in ovariectomized BALB/c mouse at 25 to 100 nmol/kg/day, sc assessed as reduction in trabecular bone stiffness; format: functional, organism-based; conditions: dose 25-100 nmol/kg
[10] = Toxicity in ovariectomized BALB/c mouse at 25 nmol/kg, sc assessed as effect on morphological changes in pancreas; format: organism-based; conditions: in vivo
Mus musculus [11] = assay: Anti-osteoporosis activity in ovariectomized BALB/c mouse at 100 nmol/kg, sc assessed as decrease in mean phosphate/amide ratio; format: functional; set-up: scale not given: the % may be the effect or the level left
Mus musculus [12] = assay: Anti-osteoporosis activity in ovariectomized BALB/c mouse at 100 nmol/kg, sc assessed as decrease in augmented acid phosphate content heterogeneity; format: functional; set-up: scale not given: the % may be the effect or the level left
Mus musculus [13] = assay: Anti-osteoporosis activity in ovariectomized BALB/c mouse at 25 to 100 nmol/kg/day, sc assessed as effect on cortical bone microarchitecture; format: functional, organism-based; conditions: dose 25-100 nmol/kg
Mus musculus [14] = assay: Anti-osteoporosis activity in ovariectomized BALB/c mouse at 100 nmol/kg/day, sc assessed as increase in work-to-fracture of cortical bone; format: functional
Mus musculus [15] = assay: Anti-osteoporosis activity in ovariectomized BALB/c mouse at 25 nmol/kg, sc assessed as reduction in trabecular spacing; format: functional; set-up: scale not given: the % may be the effect or the level left
RAW264.7 = assay: Inhibition of RANKL-induced osteoclastogenesis in mouse RAW264.7 cells measured after 110 hrs by TRAcP staining based assay; format: functional, cell-based; conditions: RAW264.7, 110 h
[16] = Toxicity in ovariectomized BALB/c mouse at 25 nmol/kg, sc assessed as effect on morphological changes in liver; format: organism-based; conditions: in vivo

In the case of `O.O=P(O)(O)C(O)(Cn1ccnc1)P(=O)(O)O` [ZOLEDRONIC ACID], the Activity (Mus musculus [1]) is reported as 15%, the Activity (Mus musculus [2]) is reported as “Active” and the Activity (Mus musculus [3]) is reported as 12%. For the same molecule, the Activity (Mus musculus [4]) was “inactive”, the Activity (Mus musculus [5]) was 21% and the Activity [6] was “Non-Toxic”.
In the case of `CC[C@H](C)[C@H](NC(=O)[C@H](CO)NC(=O)[C@H](Cc1ccccc1)NC(=O)[C@H](CC(=O)O)NC(=O)[C@H](CO)NC(=O)CNC(=O)[C@H](Cc1ccccc1)NC(=O)[C@H](CO)NC(=O)CNC(=O)[C@H](CCC(=O)O)NC(=O)CNC(=O)[C@@H](N)Cc1cnc[nH]1)C(=O)N[C@@H](C)C(=O)N[C@@H](CC(C)C)C(=O)N[C@@H](CC(=O)O)C(=O)N[C@@H](CCCCN)C(=O)N[C@@H](CC(C)C)C(=O)N[C@@H](C)C(=O)N[C@@H](C)C(=O)N[C@@H](CCCNC(=N)N)C(=O)N[C@@H](CC(=O)O)C(=O)N[C@@H](Cc1ccccc1)C(=O)N[C@H](C(=O)N[C@@H](CC(N)=O)C(=O)N[C@@H](Cc1c[nH]c2ccccc12)C(=O)N[C@@H](CC(C)C)C(=O)N[C@@H](CC(C)C)C(=O)N[C@@H](CCC(N)=O)C(=O)N[C@H](C(=O)N[C@@H](CCCCN)C(N)=O)[C@@H](C)O)C(C)C`, the Activity (Mus musculus [7]) is reported as 62%, the Activity (Mus musculus [8]) is reported as 33% and the Activity (Mus musculus [9]) is reported as “Active”. For the same molecule, the Activity [10] was “Non-Toxic”, the Activity (Mus musculus [11]) was 5% and the Activity (Mus musculus [12]) was 18%. The Activity (Mus musculus [13]) was “inactive”, the Activity (Mus musculus [14]) was 33% and the Activity (Mus musculus [15]) was 17%. For the same molecule, the IC50 (RAW264.7) was 36 pM and the Activity [16] was “Non-Toxic”.
